# From patent publication US6468782B1, “Methods of preserving prokaryotic cells and compositions obtained thereby” (priority 1996, dated 2002)
# Read-outs that look alike come from different tables or passages of the source.
# Tests used:
# E. coli 9484 = experiment: Viable cell recovery (plate assay, CFU) of trehalose-induced E. coli Q-T4 dried with different excipients and stored at 37° C.; type: cell-based
# Experimental: Viability was determined immediately after completion and at various times during storage at 37° C. using a plate assay. For the plate assay, serial 10-fold dilutions of cells were set up by using minimal medium minus a carbon source as a sterile diluent.
# Thirty μl of the cell suspension from the sixth dilution tube was added to each of 3 LB (Luria-Bertuni) plates, using a sterile glass spreader to spread the culture over the entire surface of the plate. The plates were incubated overnight at 37° C., and the colonies counted.
# E. coli strain 9894 was inoculated in 100 ml batch cultures of minimal medium related to M9 but with high (0.5M) salt content as described in Example 2. Cells were grown for 22 hours at 37° C. in a shaking incubator (early stationary phase). Samples of cultures were removed for trehalose determination (3×1 ml) and protein estimation by the Bradford assay (3×10 ml; Bio-Rad). Trehalose concentration was expressed as μmol (mg protein)^−1.
# Two 30 ml aliquots from each flask were harvested by centrifugation at 10,000 rpm for 10 minutes. Cell pellets were resuspended in 8 ml of 25-45% sugar, 0.1% CMC (sodium carboxymethyl cellulose; Blanose 7HF; Aqualon). The suspensions were then pooled to a total volume of 16 ml with a typical cell density of 4-8×10^9 CFU/ml and 300 μl aliquots dispensed into 3 ml pharmaceutical vials.
# Bacteria were dried under vacuum without freezing using the following protocol: vacuum, 30 mT; initial shelf temperature 40° C. for 16 hours, followed by ramping to 80° C. at a rate of 2.5° C./min in increments of 2° C. with a holding time of 12 minutes per increment. Foaming occurred between 60-120 minutes of initial drying.
# Viability was determined immediately before and after the completion of the drying procedure and at various times during storage at 37° C. using a plate assay as described in Example 2. The residual moisture content and the glass transition temperature were also determined.
# E. coli = experiment: Intracellular trehalose production in E. coli under osmotic shock with different salts; type: cell-based
# Experimental: E. coli NCIMB strain 9484 was cultured in Evans medium (pH 7.0; Table 1) containing one of a variety of agents for increasing osmotic pressure. After overnight incubation at 37° C. in initial Evans medium, a 4 ml culture of E. coli grown in Evans medium under nitrogen limitation was used to inoculate a 200 ml culture of Evans medium osmotic shock.
# Intracellular trehalose concentration was measured as described below at various times after the initiation of osmotic shock.
# Intracellular concentration of trehalose was determined using high pressure liquid chromatography (HPLC) as follows. Trehalose standards were prepared by first making 10 mM trehalose in 70% ethanol, followed by 10-fold serial dilution from 10 mM to 10 nM using 70% ethanol as diluent. […]
# Cell samples were prepared for analysis by disrupting the cell wall by sonication (any other method such as mortar and pestle, osmotic lysis, beads can be used) coupled with the preferential solubilization of trehalose in 70% ethanol, followed by removing triglycerides by chloroform extraction. […] The pellet volume was determined by measuring the relative increase in the initial volume following resuspension of the cells. […]
# Quantitation of trehalose was achieved by HPLC (Beckman Instruments), using a Dionex CarboPac PA 100 analytical column, with a Dionex ED40 pulsed amperometric electrochemical detector. […]
molecule,measurement,setting,value
"OC[C@H]1O[C@H](O[C@H]2O[C@H](CO)[C@@H](O)[C@H](O)[C@H]2O)[C@H](O)[C@@H](O)[C@@H]1O [Trehalose, α-D-glucopyranosyl-α-D-glucopyranoside]","% Viable Cell Recovery after storage at 37° C., Week 3","E. coli 9484; 3 weeks storage at 37° C., 25-45% sugar, 0.1% CMC",52%
same,"% Viable Cell Recovery after storage at 37° C., Week 6","E. coli 9484; 6 weeks storage at 37° C., 25-45% sugar, 0.1% CMC",45%
same,"% Viable Cell Recovery after storage at 37° C., Day 0","E. coli 9484; immediately after completion of Q-T4 drying, 25-45% sugar, 0.1% CMC",36%
N.N.O=S(=O)(O)O [ammonium sulfate],"amount of intracellular trehalose concentration stimulated, relative to NaCl, CaCl2 or KCl",E. coli,about half
"OC[C@@H](O)[C@@H](O[C@@H]1O[C@H](CO)[C@H](O)[C@H](O)[C@H]1O)[C@H](O)[C@@H](O)CO [Lactitol, 4-O-β-D-galactopyranosyl-D-glucitol]","% Viable Cell Recovery after storage at 37° C., Day 0","E. coli 9484; E. coli, 0 day",42%
same,"% Viable Cell Recovery after storage at 37° C., Week 3","E. coli 9484; E. coli, 3 weeks",36%
same,"% Viable Cell Recovery after storage at 37° C., Week 6","E. coli 9484; E. coli, 6 weeks",34%
Palatinit,"% Viable Cell Recovery after storage at 37° C., Day 0",E. coli 9484,49%
same,"% Viable Cell Recovery after storage at 37° C., Week 3",E. coli 9484,49%
same,"% Viable Cell Recovery after storage at 37° C., Week 6",E. coli 9484,51%
